This is an account of results in ChEMBL document CHEMBL6109125, “A New Protractor Potentiates Glucagon-Like Peptide 1 with Slow-Release Depot and Long-Term Action” (J Med Chem, 2025).

In general, EC50 refers to the concentration needed to bring the measured effect to its halfway point.

Common to all, as to assay type: functional, cell-based
Holding throughout (conditions): read-out: EC50

The target in experiment [1] is T1, Glucagon-like peptide 1 receptor (Homo sapiens, UniProt P43220). Briefly: Agonist activity at GLP-1R (unknown origin) expressed in HEK293 cells co-expressing CRE-Luc assessed as increase in intracellular cAMP accumulation in presence of 2% HSA by luciferase based assay. A general note: cAMP levels reflect the balance of adenylyl cyclase and phosphodiesterase activity.
T1 sequence (P43220 whole entry): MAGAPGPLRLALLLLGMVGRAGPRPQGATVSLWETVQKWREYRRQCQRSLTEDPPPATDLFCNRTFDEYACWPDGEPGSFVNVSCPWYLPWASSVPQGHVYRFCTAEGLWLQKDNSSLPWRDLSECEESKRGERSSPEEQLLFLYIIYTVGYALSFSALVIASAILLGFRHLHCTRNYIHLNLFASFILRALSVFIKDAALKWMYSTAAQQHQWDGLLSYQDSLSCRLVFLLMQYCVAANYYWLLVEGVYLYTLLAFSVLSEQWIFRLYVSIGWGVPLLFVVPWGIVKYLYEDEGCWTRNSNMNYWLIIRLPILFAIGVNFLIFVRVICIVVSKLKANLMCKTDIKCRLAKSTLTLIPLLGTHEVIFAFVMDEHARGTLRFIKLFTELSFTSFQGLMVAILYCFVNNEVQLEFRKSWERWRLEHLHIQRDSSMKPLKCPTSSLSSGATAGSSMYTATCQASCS

In experiment [2] the target is T1, Glucagon-like peptide 1 receptor. Kind of experiment: Agonist activity at GLP-1R (unknown origin) expressed in HEK293 cells co-expressing CRE-Luc assessed as increase in intracellular cAMP accumulation by luciferase based assay.
For experiment [3] the target is unchanged. Kind of experiment: Agonist activity at GLP-1R (unknown origin) expressed in HEK293 cells co-expressing CRE-Luc assessed as increase in intracellular cAMP accumulation in presence of 10% FBS by luciferase based assay.

Consider `CCOc1ccc(Nc2ccc(/C(=C3C=C/C(=[N+](\CC)Cc4ccc(S(=O)(=O)[O-])cc4)C=C/3C)c3ccc(N(CC)Cc4cccc(S(=O)(=O)NCCCCCC(=O)NCCCC[C@H](NC(=O)[C@H](C)NC(=O)[C@H](C)NC(=O)[C@H](CCC(N)=O)NC(=O)CNC(=O)[C@H](CCC(=O)O)NC(=O)[C@H](CC(C)C)NC(=O)[C@H](Cc5ccc(O)cc5)NC(=O)[C@H](CO)NC(=O)[C@H](CO)NC(=O)[C@@H](NC(=O)[C@H](CC(=O)O)NC(=O)[C@H](CO)NC(=O)[C@@H](NC(=O)[C@H](Cc5ccccc5)NC(=O)[C@@H](NC(=O)CNC(=O)[C@H](CCC(=O)O)NC(=O)C(C)(C)NC(=O)[C@@H](N)Cc5c[nH]cn5)[C@@H](C)O)[C@@H](C)O)C(C)C)C(=O)N[C@@H](CCC(=O)O)C(=O)N[C@@H](Cc5ccccc5)C(=O)N[C@H](C(=O)N[C@@H](C)C(=O)N[C@@H](Cc5c[nH]c6ccccc56)C(=O)N[C@@H](CC(C)C)C(=O)N[C@H](C(=O)N[C@@H](CCCNC(=N)N)C(=O)NCC(=O)N[C@@H](CCCNC(=N)N)C(=O)NCC(=O)O)C(C)C)[C@@H](C)CC)c4)cc3C)cc2)cc1`, for which the EC50 in experiment [1] was determined as 8.82 pM.
Take `CCOc1ccc(Nc2ccc(/C(=C3C=C/C(=[N+](\CC)Cc4cccc(S(=O)(=O)[O-])c4)C=C/3C)c3ccc(N(CC)Cc4cccc(S(=O)(=O)NCCCCCC(=O)NCCOCCOCC(=O)NCCOCCOCC(=O)NCCCC[C@H](NC(=O)[C@H](C)NC(=O)[C@H](C)NC(=O)[C@H](CCC(N)=O)NC(=O)CNC(=O)[C@H](CCC(=O)O)NC(=O)[C@H](CC(C)C)NC(=O)[C@H](Cc5ccc(O)cc5)NC(=O)[C@H](CO)NC(=O)[C@H](CO)NC(=O)[C@@H](NC(=O)[C@H](CC(=O)O)NC(=O)[C@H](CO)NC(=O)[C@@H](NC(=O)[C@H](Cc5ccccc5)NC(=O)[C@@H](NC(=O)CNC(=O)[C@H](CCC(=O)O)NC(=O)C(C)(C)NC(=O)[C@@H](N)Cc5c[nH]cn5)[C@@H](C)O)[C@@H](C)O)C(C)C)C(=O)N[C@@H](CCC(=O)O)C(=O)N[C@@H](Cc5ccccc5)C(=O)N[C@H](C(=O)N[C@@H](C)C(=O)N[C@@H](Cc5c[nH]c6ccccc56)C(=O)N[C@@H](CC(C)C)C(=O)N[C@H](C(=O)N[C@@H](CCCNC(=N)N)C(=O)NCC(=O)N[C@@H](CCCNC(=N)N)C(=O)NCC(=O)O)C(C)C)[C@@H](C)CC)c4)cc3C)cc2)cc1`: the EC50 in experiment [2] amounted to 0.79 pM; in experiment [1], 3.94 pM; in experiment [3], 2.93 pM.
Taken in the same sequence, the figures for `CCOc1ccc(Nc2ccc(/C(=C3C=C/C(=[N+](\CC)Cc4cccc(S(=O)(=O)[O-])c4)C=C/3C)c3ccc(N(CC)Cc4cccc(S(=O)(=O)NCCCCCC(=O)N[C@@H](CS(=O)(=O)O)C(=O)N[C@@H](CS(=O)(=O)O)C(=O)NCCCC[C@H](NC(=O)[C@H](C)NC(=O)[C@H](C)NC(=O)[C@H](CCC(N)=O)NC(=O)CNC(=O)[C@H](CCC(=O)O)NC(=O)[C@H](CC(C)C)NC(=O)[C@H](Cc5ccc(O)cc5)NC(=O)[C@H](CO)NC(=O)[C@H](CO)NC(=O)[C@@H](NC(=O)[C@H](CC(=O)O)NC(=O)[C@H](CO)NC(=O)[C@@H](NC(=O)[C@H](Cc5ccccc5)NC(=O)[C@@H](NC(=O)CNC(=O)[C@H](CCC(=O)O)NC(=O)C(C)(C)NC(=O)[C@@H](N)Cc5c[nH]cn5)[C@@H](C)O)[C@@H](C)O)C(C)C)C(=O)N[C@@H](CCC(=O)O)C(=O)N[C@@H](Cc5ccccc5)C(=O)N[C@H](C(=O)N[C@@H](C)C(=O)N[C@@H](Cc5c[nH]c6ccccc56)C(=O)N[C@@H](CC(C)C)C(=O)N[C@H](C(=O)N[C@@H](CCCNC(=N)N)C(=O)NCC(=O)N[C@@H](CCCNC(=N)N)C(=O)NCC(=O)O)C(C)C)[C@@H](C)CC)c4)cc3C)cc2)cc1` were 1.66 pM, 7.08 pM and 6.98 pM.
For the molecule `CCOc1ccc(Nc2ccc(/C(=C3C=C/C(=[N+](\CC)Cc4cccc(S(=O)(=O)[O-])c4)C=C/3C)c3ccc(N(CC)Cc4cccc(S(=O)(=O)NCCCCCC(=O)N[C@@H](CCC(=O)NCCCC[C@H](NC(=O)[C@H](C)NC(=O)[C@H](C)NC(=O)[C@H](CCC(N)=O)NC(=O)CNC(=O)[C@H](CCC(=O)O)NC(=O)[C@H](CC(C)C)NC(=O)[C@H](Cc5ccc(O)cc5)NC(=O)[C@H](CO)NC(=O)[C@H](CO)NC(=O)[C@@H](NC(=O)[C@H](CC(=O)O)NC(=O)[C@H](CO)NC(=O)[C@@H](NC(=O)[C@H](Cc5ccccc5)NC(=O)[C@@H](NC(=O)CNC(=O)[C@H](CCC(=O)O)NC(=O)C(C)(C)NC(=O)[C@@H](N)Cc5c[nH]cn5)[C@@H](C)O)[C@@H](C)O)C(C)C)C(=O)N[C@@H](CCC(=O)O)C(=O)N[C@@H](Cc5ccccc5)C(=O)N[C@H](C(=O)N[C@@H](C)C(=O)N[C@@H](Cc5c[nH]c6ccccc56)C(=O)N[C@@H](CC(C)C)C(=O)N[C@H](C(=O)N[C@@H](CCCNC(=N)N)C(=O)NCC(=O)N[C@@H](CCCNC(=N)N)C(=O)NCC(=O)O)C(C)C)[C@@H](C)CC)C(=O)O)c4)cc3C)cc2)cc1`, the EC50 is 1.17 pM in experiment [2], 9.1 pM in experiment [1] and 2.92 pM in experiment [3].
`CCOc1ccc(Nc2ccc(/C(=C3C=C/C(=[N+](\CC)Cc4cccc(S(=O)(=O)[O-])c4)C=C/3C)c3ccc(N(CC)Cc4cccc(S(=O)(=O)NCCCCCC(=O)N[C@@H](CCC(=O)NCCOCCOCC(=O)NCCCC[C@H](NC(=O)[C@H](C)NC(=O)[C@H](C)NC(=O)[C@H](CCC(N)=O)NC(=O)CNC(=O)[C@H](CCC(=O)O)NC(=O)[C@H](CC(C)C)NC(=O)[C@H](Cc5ccc(O)cc5)NC(=O)[C@H](CO)NC(=O)[C@H](CO)NC(=O)[C@@H](NC(=O)[C@H](CC(=O)O)NC(=O)[C@H](CO)NC(=O)[C@@H](NC(=O)[C@H](Cc5ccccc5)NC(=O)[C@@H](NC(=O)CNC(=O)[C@H](CCC(=O)O)NC(=O)C(C)(C)NC(=O)[C@@H](N)Cc5c[nH]cn5)[C@@H](C)O)[C@@H](C)O)C(C)C)C(=O)N[C@@H](CCC(=O)O)C(=O)N[C@@H](Cc5ccccc5)C(=O)N[C@H](C(=O)N[C@@H](C)C(=O)N[C@@H](Cc5c[nH]c6ccccc56)C(=O)N[C@@H](CC(C)C)C(=O)N[C@H](C(=O)N[C@@H](CCCNC(=N)N)C(=O)NCC(=O)N[C@@H](CCCNC(=N)N)C(=O)NCC(=O)O)C(C)C)[C@@H](C)CC)C(=O)O)c4)cc3C)cc2)cc1`: the EC50 is 0.63 pM in experiment [2] and 3.29 pM in experiment [1].
Taken in the same sequence, the figures for `CCOc1ccc(Nc2ccc(/C(=C3C=C/C(=[N+](\CC)Cc4cccc(S(=O)(=O)[O-])c4)C=C/3C)c3ccc(N(CC)Cc4cccc(S(=O)(=O)NCCCCCC(=O)NCCOCCOCC(=O)NCCCC[C@H](NC(=O)[C@H](C)NC(=O)[C@H](C)NC(=O)[C@H](CCC(N)=O)NC(=O)CNC(=O)[C@H](CCC(=O)O)NC(=O)[C@H](CC(C)C)NC(=O)[C@H](Cc5ccc(O)cc5)NC(=O)[C@H](CO)NC(=O)[C@H](CO)NC(=O)[C@@H](NC(=O)[C@H](CC(=O)O)NC(=O)[C@H](CO)NC(=O)[C@@H](NC(=O)[C@H](Cc5ccccc5)NC(=O)[C@@H](NC(=O)CNC(=O)[C@H](CCC(=O)O)NC(=O)C(C)(C)NC(=O)[C@@H](N)Cc5c[nH]cn5)[C@@H](C)O)[C@@H](C)O)C(C)C)C(=O)N[C@@H](CCC(=O)O)C(=O)N[C@@H](Cc5ccccc5)C(=O)N[C@H](C(=O)N[C@@H](C)C(=O)N[C@@H](Cc5c[nH]c6ccccc56)C(=O)N[C@@H](CC(C)C)C(=O)N[C@H](C(=O)N[C@@H](CCCNC(=N)N)C(=O)NCC(=O)N[C@@H](CCCNC(=N)N)C(=O)NCC(=O)O)C(C)C)[C@@H](C)CC)c4)cc3C)cc2)cc1` were 3.35 pM and 14.5 pM.
